# Experimental data as given in patent US20260325655A1, “DECREASING THE INTRINSICALLY DISORDERED PROTEIN ALPHA-SYNUCLEIN’S LEVELS BY TARGETING ITS STRUCTURED MRNA WITH A RIBONUCLEASE TARGETING CHIMERA” (University of Florida Research Foundation, Incorporated, priority 2023, published 2026).
# Legend:
# Assay type in all cases: cell-based, human
# [1] = tested on: SNCA IRE-luciferase reporter; assay: wash-out experiment using the luciferase reporter assay; settings: 16 h after compound removal; 2 μM
# From the text: (§1) Plasmid constructs and establishment of reporter gene overexpressing cells. Construction of pIRES-Luc-EGFP-puro plasmid and pCDH-α-syn-5′-UTR-Luc-EGFP-puro plasmid used in 5′ UTR-luciferase-based selectivity assay were previously described.^4 Briefly, In-Fusion PCR cloning system (Takara Bio, Mountain View, CA, USA) was used for all plasmid constructions per the manufacturer's instructions. To ensure sequence accuracy, all plasmids generated in this study were confirmed by sequencing.
# (§2) Luciferase assay. The effect of compounds on translation of SNCA IRE-containing transcript was measured by using a luciferase reporter assay. HeLa cells (~60% confluency) were transfected with plasmids (2 μg per 60 mm dish) by using JetPrime (Polyplus Transfection) according to the manufacturer's recommended procedures. Approximately 16 h after transfection, the transfection cocktail was removed, and the cells were trypsinized and seeded to 96-well plates (8,000 cells per well). After 6 h, cells were treated as described in Cell Culture. To measure the luciferase signals, the cells were then washed with 1× DPBS, and luciferase activity in each well was measured by using the ONE-Glo Luciferase Assay System (Promega) per the manufacturer's instructions. Luminescence from firefly luciferase reaction was measured using a Biomek FLx800 plate reader.
# [2] = tested on: SNCA mRNA; assay: competition of Synucleozid-2.0 with Syn-RiboTAC in SH-SY5Y cells; settings: Synucleozid-2.0 0.1-10 μM; Syn-RiboTAC constant 2 μM
# Protocol: Syn-RiboTAC's activity is RNase L-dependent. To validate mode of action, RNase L was knocked down in SH-SY5Y cells with a pool of siRNAs (FIG. 5C), followed by treatment with Syn-RiboTAC. […] Syn-RiboTAC and Synucleozid-2.0 were validated to engage the same binding site in cells by a competition experiment using a constant concentration of Syn-RiboTAC(2 μM) and varying concentrations of Synucleozid-2.0 (0.1-10 μM).
# (§3) RNA extraction and reverse transcription-quantitative polymerase chain reaction (RT-qPCR). Total RNA was extracted from cells using a Quick-RNA MiniPrep Kit (Zymo Research) per the manufacturer's protocol including DNase treatment. For each sample, 200 ng of RNA was reverse transcribed into cDNA by using a qScript cDNA Synthesis Kit (QuantaBio) according to the manufacturer's instructions. To assess the relative mRNA levels, RT-qPCR was performed in triplicate using SYBR Green PCR mater mix (Applied Biosystems) with a Quant Studio 5 Real-Time PCR system. The relative levels of mRNA were calculated by using the ΔΔCt method as previously described.^8
# [3] = tested on: control luciferase reporter lacking an IRE; assay: control luciferase reporter lacking an IRE; settings: reporter lacks IRE / SNCA-UTR sequence
# From the text: as §1, §2
# [4] = tested on: APP mRNA; assay: APP mRNA in SH-SY5Y cells by RT-qPCR
# Protocol: as §3
# [5] = tested on: ferritin mRNA; assay: ferritin mRNA in SH-SY5Y cells by RT-qPCR
# Protocol: as §3
# [6] = tested on: TfR mRNA; assay: TfR mRNA in SH-SY5Y cells by RT-qPCR
# Protocol: as §3
# [7] = tested on: APP; assay: APP protein in SH-SY5Y cells by Western blot
# Protocol: (§4) Western blotting. After 48 h, cells were gently washed with ice-cold 1× DPBS, and total protein was extracted with Mammalian Protein Extraction Reagent (M-PER, Thermo Scientific) per the manufacturer's protocol. After quantifying protein concentration by using BCA Protein Assay Kit (Pierce Biotechnology), ~30 μg of total protein for each sample was separated using a 10% SDS-polyacrylamide gel and transferred onto a PVDF membrane. The membrane was fixed with 0.4% paraformaldehyde (pH=7.0) for 30 min at room temperature^9 and then blocked with 5% (w/v) non-fat dry milk in 1× TBST (1× TBS containing 0.1% Tween-20) for 1 h at room temperature. […] After washing 10 min each with 1× TBST three times, immunocomplex signals of each protein were detected by using a SuperSignal West Pico Chemiluminescent Substrate (Pierce Biotechnology) according to the manufacturer's protocol. The memebrane was then stripped by using 1× Stripping Buffer (200 mM glycine, pH 2.2, 4 mM SDS, 1% (v/v) Tween 20) at room temperature for 15 min, followed by blocking with 5% (w/v) non-fat dry milk at room temperature for 1 h. β-actin was used to normalize the levels of all proteins, measured by incubating with a primary antibody for β-actin (1:5000, 3700S from Cell Signaling Technology) at 4° C. overnight. […]
# [8] = tested on: ferritin; assay: ferritin protein in SH-SY5Y cells by Western blot
# Protocol: as §4
# [9] = tested on: TfR; assay: TfR protein in SH-SY5Y cells by Western blot
# Protocol: as §4
# [10] = tested on: HHIPL1; assay: HHIPL1 protein in SH-SY5Y cells by Western blot; settings: 2 μM, 48 h
# Protocol: as §4
# [11] = tested on: MYO15B; assay: MYO15B protein in SH-SY5Y cells by Western blot; settings: 2 μM, 48 h
# Protocol: as §4
Structure (SMILES),activity after wash-out (in words) [1],SNCA mRNA levels in competition experiment [2],inhibition in the control luciferase reporter [3],effect on APP mRNA level [4],effect on ferritin mRNA level [5],effect on TfR mRNA level [6],effect on APP protein level [7],effect on ferritin protein level [8],effect on TfR protein level [9],reduction of HHIPL1 protein level [10],reduction of MYO15B protein level [11]
O=C(CSc1nnc(-c2ccncc2)n1-c1ccc(Br)cc1)Nc1ccc2cn[nH]c2c1 [Synucleozid-2.0],inactive,dose-dependent restoration of SNCA mRNA levels,,,,,,,,,
CCOC(=O)C1=C(Nc2ccccc2)S/C(=C\c2ccc(OCCOCCOCCOCCNC(=O)CCCOc3ccc(-n4c(SCC(=O)Nc5ccc6cn[nH]c6c5)nnc4-c4ccncc4)cc3)c(O)c2)C1=O [Syn-RiboTAC],,,Neither compound showed inhibition,None of the three transcripts was affected,None of the three transcripts was affected,None of the three transcripts was affected,no effect,no effect,no effect,~ 20%,~ 20%
